# Test results as given in US11071731B2, “Allosteric modulators of the mu opioid receptor” (Chiromics, LLC, priority 2017, dated 2021).
# Read-outs that look alike come from different tables or passages of the source.
# Experiments:
# MOR [1] = target: T1, MOR (Homo sapiens, UniProt P35372); assay: cell-based; details: EC20 Oxycodone agonism of MOR; for EC50: RC50, cAMP; for Max. Response: cAMP
# MOR [2] = target: T1, MOR; assay: cell-based; details: EC20 morphine agonism of MOR; for EC50: RC50, β-arrestin; for Max. Response: β-arrestin
# MOR [3] = target: T1, MOR; assay: cell-based; details: EC20 Oxycodone agonism of MOR; for EC50: RC50, β-arrestin; for Max. Response: β-arrestin
# mu opioid receptor (MOR) [4] = target: T2, mu opioid receptor (MOR) (Homo sapiens, UniProt P35372); assay: PathHunter β-arrestin recruitment assay, PAM mode with EC20 endomorphin-1; assay type: cell-based; details: for allosteric activity for β-arrestin recruitment: EC20 endomorphin-1 concentration of 4.5 nM
# T2 sequence (P35372 whole entry, the tested form may be a part): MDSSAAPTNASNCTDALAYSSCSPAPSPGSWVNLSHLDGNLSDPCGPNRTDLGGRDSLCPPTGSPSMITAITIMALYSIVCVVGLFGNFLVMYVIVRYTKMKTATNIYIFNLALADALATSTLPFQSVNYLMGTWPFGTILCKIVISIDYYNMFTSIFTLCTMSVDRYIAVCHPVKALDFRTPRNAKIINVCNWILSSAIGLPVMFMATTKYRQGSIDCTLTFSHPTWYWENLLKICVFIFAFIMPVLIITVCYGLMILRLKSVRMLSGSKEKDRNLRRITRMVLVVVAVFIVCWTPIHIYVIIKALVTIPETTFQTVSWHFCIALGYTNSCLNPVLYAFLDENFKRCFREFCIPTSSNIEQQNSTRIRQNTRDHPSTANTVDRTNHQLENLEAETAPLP
# Method in brief: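 Enzyme fragment complementation read-out: β-gal ED fragment fused to receptor, EA fused to β-arrestin, recruitment restoring β-gal activity detected by chemiluminescence. EC50 and percent maximal response derived for each compound.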
# mu opioid receptor (MOR) [5] = target: T2, mu opioid receptor (MOR); assay: Hit Hunter cAMP signaling assay (adenylyl cyclase inhibition), PAM mode with EC20 endomorphin-1; assay type: cell-based; details: for Max. Response: cAMP; for allosteric activity for cAMP signaling: EC20 endomorphin-1 concentration of 0.45 nM
# MOR [6] = target: T1, MOR; assay: cell-based; details: EC20 morphine agonism of MOR; for EC50: RC50, cAMP; for Max. Response: cAMP
# [7] = target: mu opioid receptor subtype OPRM1 (Homo sapiens, UniProt P35372); assay: β-arrestin recruitment assay, antagonist format; assay type: cell-based; details: Table 18
# Chain of mu opioid receptor subtype OPRM1 (P35372 whole entry, the tested form may be a part): as above
# Method: Beta-Arrestin Pathway: The PathHunter β-arrestin assay monitors the activation of a GPCR in a homogenous, non-imaging assay format using a technology developed by DiscoveRx called Enzyme Fragment Complementation (EFC) with beta-galactosidase (β-Gal) as the functional reporter. […] EA is fused to β-Arrestin and ED is fused to the GPCR of interest. When the GPCR is activated and β-arrestin is recruited to the receptor, ED and EA complementation occurs, restoring β-gal activity, which is measured using chemiluminescent PathHunter Detection Reagents.
# Similar results were obtained when agonist and antagonist activity were assayed using cAMP signaling as the readout.
# Sprague-Dawley rats [8] = assay: Gastrointestinal transit of charcoal bolus and stomach contents; details: morphine 10 mg/kg, compound 9 15, 30, 60 mg/kg
# Sprague-Dawley rats [9] = assay: Respiratory depression: blood oxygen saturation by pulse oximetry; assay type: in vivo; details: subcutaneous; morphine 10 mg/kg, compound 9 15, 30, 60 mg/kg; 90 minutes
# Method: Respiratory depression is a significant side effect associated with opioid treatment of acute and chronic pain. Drug-related overdose deaths are often a function of the respiratory depression which occurs with opioid use. Efforts to generate analgesics that dissociate pain relief from side effects are critical to the advancement of public health. […] […].
# Blood oxygen saturation was assessed in awake rats with the MouseOx oximeter system (Starr Life Sciences, Holliston, Mass.). Up to 5 samples were measured every 5 minutes for 15 minutes prior to dosing and 90 minutes after dosing. Each animal was habituated to the device over several days prior to the study.
# [10] = target: T3, PK-tagged delta opioid receptors (U20S-DOR1) (Homo sapiens, UniProt P41143); assay: β-arrestin recruitment in U20S PathHunter cells, PAM mode with EC20 DADLE; assay type: cell-based; details: EC20 (0.8 nM) DADLE; concentrations up to 25 μM
# T3 construct: host or cells: U20S Path Hunter cells
# [11] = target: T4, PK-tagged kappa opioid receptors (U20S-KOR1) (Homo sapiens, UniProt P41145); assay: β-arrestin recruitment in U20S PathHunter cells, PAM mode with EC20 Dynorphin A; assay type: cell-based; details: EC20 (0.8 nM) Dynorphin A; concentrations up to 25 μM
# T4 construct: host or cells: U20S Path Hunter cells
# MOR [12] = target: T1, MOR; assay type: cell-based; details: β-arrestin; EC20 EM2 agonism of MOR
# MOR [13] = target: T1, MOR; assay type: cell-based; details: cAMP; EC20 EM2 agonism of MOR
# [14] = maximal response for β-arrestin recruitment
# [15] = β-arrestin recruitment, read-out: β-arr. EC50
# [16] = β-arrestin, EC20 EM-1 agonism of MOR
# [17] = β-arrestin, EC20 EM-1 agonism of MOR, read-out: RC50 (the source's name)
# [18] = RC50, cAMP, EC20 EM-1 agonism of MOR
# [19] = cAMP EC50, adenylyl cyclase inhibition
# [20] = maximal response for adenylyl cyclase inhibition
# [21] = adenylyl cyclase inhibition, read-out: cAMP EC50
# T1 sequence (P35372 whole entry): as the sequence (P35372 whole entry, the tested form may be a part) above
SMILES,β-arr Max. Resp. (mu opioid receptor (MOR) [4]; [14]),EC50 (mu opioid receptor (MOR) [4]; [15]),EC50 (mu opioid receptor (MOR) [5]; [19]),cAMP Max. Resp. (mu opioid receptor (MOR) [5]; [20]),allosteric activity for β-arrestin recruitment (mu opioid receptor (MOR) [4]),allosteric activity for cAMP signaling (mu opioid receptor (MOR) [5]),EC50 (mu opioid receptor (MOR) [5]; [21]),also measured
"Fc1cnc(Cl)nc1N1CCCCC1c1cccc(C(F)(F)F)c1 (single isomer, unassigned) [compound 8]",F (F represents a maximal response of > 60%),< 700 nM,700 to 2100 nM,F (F represents a maximal response of > 60%),,,,EC50 (MOR [1]): 1.91 µM; Max. Response (MOR [1]): 56; EC50 (MOR [2]): 7.11 µM; Max. Response (MOR [2]): 487; EC50 (MOR [3]): 12.9 µM; Max. Response (MOR [3]): 343; Max. Response (mu opioid receptor (MOR) [4]; [16]): 213; EC50 (mu opioid receptor (MOR) [4]; [17]): 330 nM; EC50 (mu opioid receptor (MOR) [5]; [18]): 840 nM; Max. Response (mu opioid receptor (MOR) [5]; EC20 EM-1 agonism of MOR): 76; EC50 (MOR [6]): 2 µM; Max. Response (MOR [6]): 44
COc1ccc(C2C3CCC(C3)N2S(=O)(=O)c2ccc(Cl)cc2)cc1Br (centres unmarked) [Compound 177],F (F represents a maximal response of > 60%),> 2100 nM,,E (E represents a maximal response of 40-60%),moderate positive allosteric effect,moderate positive allosteric effect,> 2100 nM,IC50 [7]: > 25 µM
Fc1cnc(Cl)nc1N1CCCCC1c1cccc(C(F)(F)F)n1 (centres unmarked) [compound 123],F (F represents a maximal response of > 60%),700 to 2100 nM,< 700 nM,E (E represents a maximal response of 40-60%),,,,EC50 (MOR [1]): > 25 µM; Max. Response (MOR [1]): 0; EC50 (MOR [2]): 14.1 µM; Max. Response (MOR [2]): 59; EC50 (MOR [3]): > 25 µM; Max. Response (MOR [3]): 17; Max. Response (mu opioid receptor (MOR) [4]; [16]): 190; EC50 (mu opioid receptor (MOR) [4]; [17]): 1020 nM; EC50 (mu opioid receptor (MOR) [5]; [18]): 590 nM; Max. Response (mu opioid receptor (MOR) [5]; EC20 EM-1 agonism of MOR): 43; EC50 (MOR [6]): > 25 µM; Max. Response (MOR [6]): 0
"COc1ccc(C2N(S(=O)(=O)c3ccc(Cl)cc3)CCC2(F)F)cc1Br (single isomer, unassigned) [Compound 110]",F (F represents a maximal response of > 60%),> 2100 nM,,F (F represents a maximal response of > 60%),moderate positive allosteric effect,moderate positive allosteric effect,> 2100 nM,IC50 [7]: > 25 µM
"CN1CC[C@]23c4c5ccc(O)c4O[C@H]2[C@@H](O)C=C[C@H]3[C@H]1C5 [morphine, reference compound]",,,,,,,,stomach weight (Sprague-Dawley rats [8]; 20 minutes after charcoal): increased; GI transit (Sprague-Dawley rats [8]; subcutaneous 1 hour before charcoal): significantly decreased; oxygen saturation / respiratory depression (Sprague-Dawley rats [9]): significant reduction in oxygen saturation
"COc1ccc(C2CC(C(F)(F)F)CN2S(=O)(=O)c2ccc(Cl)cc2)cc1Br (single isomer, unassigned) [Compound 109]",F (F represents a maximal response of > 60%),> 2100 nM,,E (E represents a maximal response of 40-60%),moderate positive allosteric effect,moderate positive allosteric effect,< 700 nM,IC50 [7]: > 25 µM
O=S(=O)(c1ccc(Cl)cc1)N1CCCCC1c1ccc(F)c(Br)c1 (racemic) [compound 60],F (F represents a maximal response of > 60%),< 700 nM,,E (E represents a maximal response of 40-60%),,,< 700 nM,"positive allosteric effect on DOR signaling [10]: no significant positive allosteric effect; positive allosteric effect on KOR signaling [11]: no significant positive allosteric effect; β-arrestin Max Response (mu opioid receptor (MOR) [4]; β-arrestin recruitment, activity switching by MOR PAMs): F (F represents a maximal response of >60%); EC50 (mu opioid receptor (MOR) [4]; β-arrestin recruitment, activity switching by MOR PAMs, read-out: β-arrestin EC50): > 2100 nM; cAMP Max Resp. (mu opioid receptor (MOR) [5]; adenylyl cyclase inhibition, activity switching by MOR PAMs): D (D represents a maximal response of < 40%); EC50 (mu opioid receptor (MOR) [5]; adenylyl cyclase inhibition, activity switching by MOR PAMs, read-out: cAMP EC50): > 2100 nM"
Fc1ccc(Cl)cc1CN1CCCCC1c1cccc(C(F)(F)F)n1 (centres unmarked) [compound 2],F (F represents a maximal response of > 60%),< 700 nM,< 700 nM,F (F represents a maximal response of > 60%),high positive allosteric activity,high positive allosteric activity,,"Max. Response (MOR [12]): 97; EC50 (MOR [1]): > 25 µM; Max. Response (MOR [1]): 5; EC50 (MOR [2]): 9.59 µM; Max. Response (MOR [2]): 156; EC50 (MOR [3]): 13.6 µM; Max. Response (MOR [3]): 126; signaling preference β-arrestin vs cAMP (mu opioid receptor (MOR) [4]; comparison of β-arrestin and cAMP assays): roughly equivalent signaling for β-arrestin and cAMP; β-arr. Max Resp. (mu opioid receptor (MOR) [4]; maximal response for β-arrestin recruitment, Table 3): 72; EC50 (mu opioid receptor (MOR) [4]; β-arrestin recruitment, Table 3, read-out: β-arr. EC50): 155 nM; Max. Response (mu opioid receptor (MOR) [4]; [16]): 143; EC50 (mu opioid receptor (MOR) [4]; [17]): 360 nM; EC50 (mu opioid receptor (MOR) [5]; [18]): 570 nM; EC50 (mu opioid receptor (MOR) [5]; cAMP EC50 (nM), adenylyl cyclase inhibition, Table 3): 170 nM; Max. Response (mu opioid receptor (MOR) [5]; EC20 EM-1 agonism of MOR): 81; cAMP Max Resp. (mu opioid receptor (MOR) [5]; maximal response for adenylyl cyclase inhibition, Table 3): 85; Max. Response (MOR [13]): 83; EC50 (MOR [6]): > 25 µM; Max. Response (MOR [6]): 26"
"COc1ccc(C2C(C(F)(F)F)CCN2S(=O)(=O)c2ccc(Cl)cc2)cc1Br (single isomer, unassigned) [Compound 108]",F (F represents a maximal response of > 60%),> 2100 nM,,E (E represents a maximal response of 40-60%),moderate positive allosteric effect,moderate positive allosteric effect,> 2100 nM,IC50 [7]: > 25 µM
Fc1cnccc1C1CCCCN1c1nc(Cl)ncc1F (centres unmarked) [compound 375],D (D represents a maximal response of < 40%),< 700 nM,< 700 nM,D (D represents a maximal response of < 40%),,,,
O=S1(=O)CCN(c2nc(Cl)ncc2F)C(c2cc(F)cc(C(F)(F)F)c2)C1 (racemic) [Compound 303],D (D represents a maximal response of < 40%),> 2100 nM,,E (E represents a maximal response of 40-60%),,,> 2100 nM,
COc1ccc(C2N(S(=O)(=O)c3ccc(Cl)cc3)CCC2(F)F)cc1Br (racemic) [Compound 85],D (D represents a maximal response of < 40%),> 2100 nM,,D (D represents a maximal response of < 40%),,,> 2100 nM,
Fc1ccc(Cl)nc1N1CCCCC1c1cncc(Cl)n1 (centres unmarked) [compound 395],D (D represents a maximal response of < 40%),< 700 nM,,D (D represents a maximal response of < 40%),,,< 700 nM,
CCCC1(F)CCCN(c2nc(Cl)ncc2F)C1c1cccc(C(F)(F)F)c1 (centres unmarked) [compound 424],,> 2100 nM,,,,,> 2100 nM,"β-arr Max. Resp. (mu opioid receptor (MOR) [4]; maximal response, β-arrestin recruitment): F (F represents a maximal response of > 60%); cAMP Max. Resp. (mu opioid receptor (MOR) [5]; maximal response, adenylyl cyclase inhibition): D (D represents a maximal response of < 40%)"
Cc1ccc(C2CCCCN2c2nc(Cl)ncc2F)cn1 (centres unmarked) [compound 411],D (D represents a maximal response of < 40%),< 700 nM,< 700 nM,D (D represents a maximal response of < 40%),,,,
